Measured values: article PMC3293837, “Biophysical Property and Broad Anti-HIV Activity of Albuvirtide, a 3-Maleimimidopropionic Acid-Modified Peptide Fusion Inhibitor” (PLoS ONE, 2012)
Where two headings read alike, the source gives them in different places. Side chains are listed from the residue outwards. Peptide text beside a SMILES is read from it. * marks the point of attachment. Propanoyl(3-maleimido) = O=C1C=CC(=O)N1CCC(=O)*; AEEA = NCCOCCOCC(=O)O

How the values were obtained:
[1] = rats, intravenous, ref [25], cited from earlier work
[2] = monkeys, intravenous, ref [25], cited from earlier work
[3] = tested on: HIV-1NL4-3 Env-pseudotyped virus; type: cell-based
Method: (§1) HIV-1 pseudoviruses were generated as described previously [32], [55]–[56]. Briefly, 293T cells (5×10^6 cells in 15 ml of growth medium in a T-75 culture flask) were cotransfected with 10 µg of an Env-expressing plasmid and 20 µg of a backbone plasmid pSG3deltaEnv that encodes Env-defective, luciferase-expressing HIV-1 genome using Lipofectamine 2000 reagent (Invitrogen). Pseudovirus-containing culture supernatants were harvested 48 hours after transfection and filtered by 0.45-mm pore size, and stored at −80°C in 1-ml aliquots until use. The 50% tissue culture infectious dose (TCID50) of a single thawed aliquot of each pseudovirus batch was determined in TZM-bl cells. […] Briefly, the peptides were prepared with ten series dilutions in a 3-fold stepwise manner and mixed with 100 TCID50 viruses and incubated 1 hour at room temperature. The mixture was added to TZM-bl cells (10^4/well) and incubation at 37°C for 48 hours. Luciferase activity was measured using luciferase assay regents (Promega, Medison, WI) and a Luminescence Counter (Promega) according to the manufacture's instructions.

[4] = tested on: HIV-1NL4-3 D36G pseudovirus; type: cell-based
Method: as §1

[5] = tested on: HIV-1NL4-3 I37T pseudovirus; type: cell-based
Method: as §1

[6] = tested on: HIV-1NL4-3 V38A pseudovirus; type: cell-based
Method: as §1

[7] = tested on: HIV-1NL4-3 V38M pseudovirus; type: cell-based
Method: as §1

[8] = tested on: HIV-1NL4-3 Q40H pseudovirus; type: cell-based
Method: (§2) The mutations were created using double-stranded DNA templates and selection of mutants with DpnI. For each mutation, the two primers contained the desired mutation and occupied the same starting and ending positions on opposite strands of the plasmid DNA. DNA synthesis was carried out by PCR in a 50-µL reaction volume using 1 µL of denatured plasmid template (1 ng/µL), 50 pmol of upper and lower primers and 5 U of high-fidelity thermostable polymerase PrimeStar (Takara, Dalian, China). PCR amplification was carried out for one cycle of denaturation at 98°C for 5 min, then 18 cycles of 98°C for 15 s and 68°C for 15 min, followed a final extension at 72°C for 10 min. The amplicons were treated with the restriction enzyme DpnI for 1 h at 37°C. DpnI-resistant molecules, which were rich in the desired mutants, were recovered by transforming Escherichia coli strain-DH5α to antibiotic resistance. The successful mutations were confirmed by sequencing.
as §1

[9] = tested on: HIV-1NL4-3 N43K pseudovirus; type: cell-based
Method: as §2, §1

[10] = tested on: HIV-1NL4-3 D36S/V38M pseudovirus; type: cell-based
Method: as §2, §1

[11] = tested on: HIV-1NL4-3 I37T/N43K pseudovirus; type: cell-based
Method: as §2, §1

[12] = tested on: HIV-1NL4-3 V38A/N42T pseudovirus; type: cell-based
Method: as §1

[13] = after conjugation with serum albumin
[14] = value from which half-life was extended by albumin conjugation

Compound: CC[C@H](C)[C@H](NC(=O)[C@H](CC(C)C)NC(=O)[C@H](CCC(=O)O)NC(=O)[C@H](Cc1c[nH]cn1)NC(=O)[C@@H](NC(=O)[C@H](CC(C)C)NC(=O)[C@H](CCCCNC(=O)COCCOCCNC(=O)CCN1C(=O)C=CC1=O)NC(=O)[C@@H](NC(=O)[C@H](Cc1ccc(O)cc1)NC(=O)[C@H](CC(N)=O)NC(=O)[C@H](CC(N)=O)NC(=O)[C@@H](NC(=O)[C@H](CCC(=O)O)NC(=O)[C@H](CCCNC(=N)N)NC(=O)[C@H](CC(=O)O)NC(=O)[C@H](Cc1c[nH]c2ccccc12)NC(=O)[C@H](CCC(=O)O)NC(=O)[C@H](CCC(=O)O)NC(=O)[C@H](Cc1c[nH]c2ccccc12)NC(C)=O)[C@@H](C)CC)[C@@H](C)O)[C@@H](C)CC)C(=O)N[C@@H](CCC(=O)O)C(=O)N[C@@H](CCC(=O)O)C(=O)N[C@@H](CO)C(=O)N[C@@H](CCC(N)=O)C(=O)N[C@@H](CC(N)=O)C(=O)N[C@@H](CCC(N)=O)C(=O)N[C@@H](CCC(N)=O)C(=O)N[C@@H](CCC(=O)O)C(=O)N[C@@H](CCCCN)C(=O)N[C@@H](CC(N)=O)C(=O)N[C@@H](CCC(=O)O)C(=O)N[C@@H](CCC(N)=O)C(=O)N[C@@H](CCC(=O)O)C(=O)N[C@@H](CC(C)C)C(=O)N[C@@H](CC(C)C)C(N)=O [ABT] (Ac-WEEWDREINNYTK([AEEA-Propanoyl(3-maleimido)])LIHELIEESQNQQEKNEQELL-NH2)
- in vivo half-life (extended, 'to') [1, 13]: 25.8 h
- in vivo half-life (before extension, 'from') [1, 14]: 1.67 h
- in vivo half-life (extended, 'to') [2, 13]: 102.4 h
- in vivo half-life (before extension, 'from') [2, 14]: 10.89 h

Compound: Cc1cn([C@H]2C[C@H](N=[N+]=[N-])[C@@H](CO)O2)c(=O)[nH]c1=O [AZT]
- IC50 ([3]; HIV-1NL4-3 WT pseudovirus, Table 3, TZM-bl, 48 h, mean ± SD of three independent experiments, read-out: IC50): 107 ± 23.2 nM
- Fold change (in parentheses) ([3]; WT, reference D36G): 1.8
- Fold change ([3]; WT, reference wild-type): 1.0
- Fold change (in parentheses) ([4]; D36G, reference D36G): 1.0
- Fold change ([4]; D36G, reference wild-type): 0.6
- IC50 ([4]; HIV-1NL4-3 D36G, TZM-bl, 48 h, mean ± SD of three independent experiments): 59.4 ± 5.9 nM
- IC50 ([5]; HIV-1NL4-3 I37T, TZM-bl, 48 h, mean ± SD of three independent experiments): 93.5 ± 13.5 nM
- Fold change (in parentheses) ([5]; I37T, reference D36G): 1.6
- Fold change ([5]; I37T, reference wild-type): 0.9
- IC50 ([6]; HIV-1NL4-3 V38A, TZM-bl, 48 h, mean ± SD of three independent experiments): 42.3 ± 9 nM
- Fold change (in parentheses) ([6]; V38A, reference D36G): 0.7
- Fold change ([6]; V38A, reference wild-type): 0.4
- IC50 ([7]; HIV-1NL4-3 V38M, TZM-bl, 48 h, mean ± SD of three independent experiments): 47.8 ± 3.7 nM
- Fold change (in parentheses) ([7]; V38M, reference D36G): 0.8
- Fold change ([7]; V38M, reference wild-type): 0.5
- IC50 ([8]; HIV-1NL4-3 Q40H, TZM-bl, 48 h, mean ± SD of three independent experiments): 33.2 ± 7.2 nM
- Fold change (in parentheses) ([8]; Q40H, reference D36G): 0.6
- Fold change ([8]; Q40H, reference wild-type): 0.3
- IC50 ([9]; HIV-1NL4-3 N43K, TZM-bl, 48 h, mean ± SD of three independent experiments): 153 ± 7.4 nM
- Fold change (in parentheses) ([9]; N43K, reference D36G): 2.6
- Fold change ([9]; N43K, reference wild-type): 1.4
- Fold change (in parentheses) ([10]; D36S/V38M, reference D36G): 0.7
- Fold change ([10]; D36S/V38M, reference wild-type): 0.4
- IC50 ([10]; HIV-1NL4-3 D36S/V38M, TZM-bl, 48 h, mean ± SD of three independent experiments): 40.3 ± 8.6 nM
- IC50 ([11]; HIV-1NL4-3 I37T/N43K, TZM-bl, 48 h, mean ± SD of three independent experiments): 139 ± 14.9 nM
- Fold change (in parentheses) ([11]; I37T/N43K, reference D36G): 2.3
- Fold change ([11]; I37T/N43K, reference wild-type): 1.3
- IC50 ([12]; HIV-1NL4-3 V38A/N42T, TZM-bl, 48 h, mean ± SD of three independent experiments): 38.1 ± 3.7 nM
- Fold change (in parentheses) ([12]; V38A/N42T, reference D36G): 0.6
- Fold change ([12]; V38A/N42T, reference wild-type): 0.4
